From patent publication US11078202B2, “β-lactamase inhibitor and use thereof” (priority 2018, dated 2021)
Structures can show the parent of a compound that is named as a salt.

Key:
Type in all cases: cell-based
[1] = test system: Acinetobacter baumannii XNWB 0007; assay: MIC assay of test compounds combined with ceftazidime (8 μg/mL); conditions: ceftazidime 8 μg/mL fixed
Description: (§1) The bacterial strains used for the minimum inhibitory concentration (MIC) test were frozen in a −80° C. ULT freezer and thawed 2 days before use. A small amount of frozen bacterial strains were scraped using a sterile inoculating loop, streaked onto a TSA solid culture dish for inoculation, and then cultured for 20-24 h at 35±2° C. in a normal atmospheric environment. 5-10 colonies with similar morphology were picked from the culture dish using a sterile inoculating loop and then re-streaked onto a suitable solid culture dish. Then the dish was placed into a normal incubator for culture for 20-24 h at 35±2° C. 5-10 single bacterial colonies were picked from the solid culture dish, resuspended in 500 μL of 0.9% NaCl, and adjusted to an OD600 of 0.1-0.15 with a spectrophotometer. The bacteria were then diluted 300-fold with 1.1×CAMHB. […] Dilution of test compounds: […] 2 μL of each compound in the dilution master plate of the test compounds was transferred to the corresponding well of the assay plates. In the mean time, 2 μL of 100% DMSO was transferred to the compound-free wells (GC and SC wells). (1) 8 μL of imipenem in the additive plate of imipenem was transferred to the corresponding wells of the assay plates; (2) 8 μL of ceftazidime in the additive plate of ceftazidime was transferred to the corresponding wells of the assay plates; (3) 8 μL of ampicillin in the additive plate of ampicillin was transferred to the corresponding wells of the assay plates. 90 μL of corresponding bacterial inocula were added to wells (except for SC wells) of the assay plates. After addition, the 6 assay plates were covered by sterile covers. The mixtures in the assay plates were centrifuged by a centrifuge at 1000 rpm for 30 s, and mixed uniformly by oscillating with a microplate oscillator at 800 rpm for 1 min, and then cultured in a common incubator for 16-20 h at 35±2° C. The minimum inhibitory concentration of each compound was recorded by reference to guidelines from the Clinical and Laboratory Standards Institute. […] The effect of the test compounds in combination with imipenem, ceftazidime, and ampicillin was also tested. […] The bacterial inocula in the assay plates were resuscitated from TSA and diluted in CAMHB, while growth controls (GC wells) and sterile controls (SC wells) were set up in the assay plates. The minimum inhibitory concentration of each compound combination against different bacteria was observed and recorded after the assay plates were incubated in a common incubator at 35±2° C. for 16-20 h, and the results are shown in Tables 1-3.

[2] = test system: Klebsiella pneumoniae XNWB 0001; assay: as above; conditions: ceftazidime 8 μg/mL fixed
Description: as §1

[3] = test system: Klebsiella pneumoniae XNWB 0002; assay: as above; conditions: ceftazidime 8 μg/mL fixed
Description: as §1

[4] = test system: Klebsiella pneumoniae XNWB 0003; assay: as above; conditions: ceftazidime 8 μg/mL fixed
Description: as §1

[5] = test system: Klebsiella pneumoniae XNWB 0004; assay: as above; conditions: ceftazidime 8 μg/mL fixed
Description: as §1

[6] = test system: Klebsiella pneumoniae XNWB 0005; assay: as above; conditions: ceftazidime 8 μg/mL fixed
Description: as §1

[7] = test system: Klebsiella pneumoniae XNWB 0006; assay: as above; conditions: ceftazidime 8 μg/mL fixed
Description: as §1

[8] = test system: Pseudomonas aeruginosa XNWB 0008; assay: as above; conditions: ceftazidime 8 μg/mL fixed
Description: as §1

[9] = test system: Acinetobacter baumannii XNWB 0007; assay: MIC assay of test compounds combined with imipenem (4 μg/mL); conditions: imipenem 4 μg/mL fixed
Description: as §1

[10] = test system: Klebsiella pneumoniae XNWB 0001; assay: as above; conditions: imipenem 4 μg/mL fixed
Description: as §1

[11] = test system: Klebsiella pneumoniae XNWB 0002; assay: as above; conditions: imipenem 4 μg/mL fixed
Description: as §1

[12] = test system: Klebsiella pneumoniae XNWB 0003; assay: as above; conditions: imipenem 4 μg/mL fixed
Description: as §1

[13] = test system: Klebsiella pneumoniae XNWB 0004; assay: as above; conditions: imipenem 4 μg/mL fixed
Description: as §1

[14] = test system: Klebsiella pneumoniae XNWB 0005; assay: as above; conditions: imipenem 4 μg/mL fixed
Description: as §1

[15] = test system: Klebsiella pneumoniae XNWB 0006; assay: as above; conditions: imipenem 4 μg/mL fixed
Description: as §1

[16] = test system: Pseudomonas aeruginosa XNWB 0008; assay: as above; conditions: imipenem 4 μg/mL fixed
Description: as §1

Row | Compound | The minimum concentration of test compounds combined with ceftazidime (8 μg/mL) for bacteriostasis [1] | The minimum concentration of test compounds combined with ceftazidime (8 μg/mL) for bacteriostasis [2] | The minimum concentration of test compounds combined with ceftazidime (8 μg/mL) for bacteriostasis [3] | The minimum concentration of test compounds combined with ceftazidime (8 μg/mL) for bacteriostasis [4] | The minimum concentration of test compounds combined with ceftazidime (8 μg/mL) for bacteriostasis [5] | The minimum concentration of test compounds combined with ceftazidime (8 μg/mL) for bacteriostasis [6] | The minimum concentration of test compounds combined with ceftazidime (8 μg/mL) for bacteriostasis [7] | The minimum concentration of test compounds combined with ceftazidime (8 μg/mL) for bacteriostasis [8] | The minimum concentration of test compounds combined with imipenem (4 μg/mL) for bacteriostasis [9] | The minimum concentration of test compounds combined with imipenem (4 μg/mL) for bacteriostasis [10] | The minimum concentration of test compounds combined with imipenem (4 μg/mL) for bacteriostasis [11] | The minimum concentration of test compounds combined with imipenem (4 μg/mL) for bacteriostasis [12] | The minimum concentration of test compounds combined with imipenem (4 μg/mL) for bacteriostasis [13] | The minimum concentration of test compounds combined with imipenem (4 μg/mL) for bacteriostasis [14] | The minimum concentration of test compounds combined with imipenem (4 μg/mL) for bacteriostasis [15] | The minimum concentration of test compounds combined with imipenem (4 μg/mL) for bacteriostasis [16]
1 | NC1CC(c2cc([C@@H]3CC4(CC4)[C@@H]4CN3C(=O)N4OS(=O)(=O)O)no2)C1 (single isomer, unassigned) [Example 52] | C (C: 16-128 μg/mL) | A (A: <8 μg/mL) | A (A: <8 μg/mL) | B (B: 8-16 μg/mL) | B (B: 8-16 μg/mL) | B (B: 8-16 μg/mL) | A (A: <8 μg/mL) | C (C: 16-128 μg/mL) | C (C: 16-128 μg/mL) | A (A: <8 μg/mL) | A (A: <8 μg/mL) | A (A: <8 μg/mL) | A (A: <8 μg/mL) | A (A: <8 μg/mL) | A (A: <8 μg/mL) | A (A: <8 μg/mL)
2 | N[C@@H]1CCC(c2nnc([C@@H]3CC4(CC4)[C@@H]4CN3C(=O)N4OS(=O)(=O)O)o2)C1 (stereo in doubt) [Example 18, (1R,4S)-4-(5-((1R,3R)-3-aminocyclopentyl)-1,3,4-oxadiazol-2-yl)-6-oxo-5,7-diazaspiro [bicyclo[3.2.1]octane-2,1′-cyclopropan]-7-yl sulfate] | C (C: 16-128 μg/mL) | A (A: <8 μg/mL) | A (A: <8 μg/mL) | A (A: <8 μg/mL) | B (B: 8-16 μg/mL) | A (A: <8 μg/mL) | A (A: <8 μg/mL) | B (B: 8-16 μg/mL) | B (B: 8-16 μg/mL) | A (A: <8 μg/mL) | A (A: <8 μg/mL) | A (A: <8 μg/mL) | A (A: <8 μg/mL) | A (A: <8 μg/mL) | A (A: <8 μg/mL) | A (A: <8 μg/mL)
3 | NC(=O)[C@@H]1CC[C@@H]2CN1C(=O)N2OS(=O)(=O)O [Avibactam, reference compound] | C (C: 16-128 μg/mL) | A (A: <8 μg/mL) | A (A: <8 μg/mL) | A (A: <8 μg/mL) | A (A: <8 μg/mL) | A (A: <8 μg/mL) | A (A: <8 μg/mL) | A (A: <8 μg/mL) | C (C: 16-128 μg/mL) | A (A: <8 μg/mL) | A (A: <8 μg/mL) | A (A: <8 μg/mL) | A (A: <8 μg/mL) | A (A: <8 μg/mL) | A (A: <8 μg/mL) | A (A: <8 μg/mL)
4 | O=C1N2C[C@H](N1OS(=O)(=O)O)C1(CC1)C[C@H]2c1nnco1 [Example 1, (1R,4S)-4-(1,3,4-oxadiazol-2-yl)-6-oxo-5,7-diazaspiro[bicyclo[3.2.1]octane-2,1′-cyclopropan]-7-yl sulfate] | C (C: 16-128 μg/mL) | A (A: <8 μg/mL) | A (A: <8 μg/mL) | A (A: <8 μg/mL) | B (B: 8-16 μg/mL) | A (A: <8 μg/mL) | A (A: <8 μg/mL) | C (C: 16-128 μg/mL) | C (C: 16-128 μg/mL) | A (A: <8 μg/mL) | A (A: <8 μg/mL) | A (A: <8 μg/mL) | A (A: <8 μg/mL) | A (A: <8 μg/mL) | A (A: <8 μg/mL) | C (C: 16-128 μg/mL)
5 | NC[C@@H](O)c1nnc([C@@H]2CC3(CC3)[C@@H]3CN2C(=O)N3OS(=O)(=O)O)o1 [Example 61] | – | – | – | – | – | – | – | – | B (B: 8-16 μg/mL) | A (A: <8 μg/mL) | A (A: <8 μg/mL) | A (A: <8 μg/mL) | A (A: <8 μg/mL) | A (A: <8 μg/mL) | A (A: <8 μg/mL) | B (B: 8-16 μg/mL)
6 | NC[C@H](O)c1nnc([C@@H]2CC3(CC3)[C@@H]3CN2C(=O)N3OS(=O)(=O)O)o1 [Example 62, (1R,4S)-4-(5-((S)-2-amino-1-hydroxyethyl)-1,3,4-oxadiazol-2-yl)-6-oxo-5,7-diazaspiro[bicyclo[3.2.1]octane-2,1′-cyclopropane]-7-yl hydrogen sulfate] | – | – | – | – | – | – | – | – | A (A: <8 μg/mL) | A (A: <8 μg/mL) | A (A: <8 μg/mL) | A (A: <8 μg/mL) | A (A: <8 μg/mL) | A (A: <8 μg/mL) | A (A: <8 μg/mL) | B (B: 8-16 μg/mL)
